Data as given in US20080249113A1, “Fungicidal Mixtures” (priority 2004, published 2008).

Assays:
Assay type in all cases: in vivo
Alternaria solani = experiment: Use Example 5: early blight of tomato caused by Alternaria solani, synergism test (Abbot efficacy, Colby); conditions: individual active compound; for pest or weed control at 4 ppm: 4 ppm in the spray liquor
Method: (§1) For use examples 3 to 9, the active compounds, separately or jointly, were prepared as a stock solution comprising 0.25% by weight of active compound in acetone or DMSO. 1% by weight of the emulsifier Uniperol® EL (wetter having emulsifying and dispersant action based on ethoxylated alkylphenols) was added to this solution, and the mixture was diluted with water to the desired concentration.
(§2) The active compounds fosetyl-AI, epoxiconazole, triticonazole and pyraclostrobin were applied in their commercial formulation.
Leaves of potted plants of the cultivar “Goldene Königin” were sprayed to run off point with an aqueous suspension having the active compound concentration stated below. The next day, the leaves were infected with an aqueous spore suspension of Alternaria solani in a 2% strength biomalt solution having a density of 0.17×10^6 spores/ml. The plants were then placed in a water vapor-saturated chamber at temperatures between 20 and 22° C. After 5 days, the disease on the untreated but infected control plants had developed to such an extent that the infection could be determined visually in %.
A further test according to use example 3 was evaluated as follows:
(§3) The visually determined percentages of infected leaf areas were converted into efficacies in % of the untreated control:
(§4) The efficacy (E) is calculated as follows using Abbot's formula: […]
(§5) α corresponds to the fungicidal infection of the treated plants in % and β corresponds to the fungicidal infection of the untreated (control) plants in %
(§6) […]; The expected efficacies of mixtures of active compounds were determined using Colby's formula (Colby, S.R. “Calculating synergistic and antagonistic responses of herbicide combinations”, Weeds, 15, 20-22, 1967) and compared with the observed efficacies.
(§7) E=x+y−x·y/100 • E expected efficacy, expressed in % of the untreated control, when using the mixture of the active compounds A and B at the concentrations a and b • x efficacy, expressed in % of the untreated control, when using the active compound A at the concentration a • y efficacy, expressed in % of the untreated control, when using the active compound B at the concentration b

Puccinia recondita = experiment: Use Example 6: protective activity against Puccinia recondita on wheat (brown rust of wheat); conditions: individual active compound
Method: as §1, §2, §3, §4, §5, §6, §7
Leaves of potted wheat seedlings of the cultivar “Kanzler” were sprayed to run off point with an aqueous suspension having the active compound concentration stated below. The next day, the treated plants were inoculated with a spore suspension of brown rust of wheat (Puccinia recondite). The plants were then placed in a chamber with high atmospheric humidity (90 to 95%) at 20 to 22° C. for 24 hours. During this time, the spores germinated and the germ tubes penetrated into the leaf tissue. The next day, the test plants were returned to the greenhouse and cultivated at temperatures between 20 and 22° C. and 65 to 70% relative atmospheric humidity for a further 7 days. The extent of the rust fungus development on the leaves was then determined visually.

Pyrenophora teres = experiment: Use Example 7: net blotch of barley caused by Pyrenophora teres, 1 day protective application, synergism test; conditions: individual active compound
Method: as §1
Leaves of potted barley seedlings were sprayed to run off with an aqueous suspension having the active compound concentration stated below. 24 hours after the spray coating had dried on, the test plants were inoculated with an aqueous spore suspension of Pyrenophora [syn. Drechslera ] teres, the net blotch pathogen. The test plants were then placed in a greenhouse at temperatures between 20 and 24° C. and 95 to 100% relative atmospheric humidity. After 6 days, the extent of the development of the disease was determined visually in % infection of the entire leaf area.
as §3, §4, §5, §6, §7
In a further test according to use example 4, the following results were obtained: […]

[1] = Alternaria solani, 120 h, read-out: Efficacy in % of the untreated control
[2] = Alternaria solani, 120 h, 16 ppm in the spray liquor, read-out: Efficacy in % of the untreated control
[3] = Alternaria solani, 120 h, 63 ppm in the spray liquor, read-out: Efficacy in % of the untreated control

Fc1ccc([C@]2(Cn3cncn3)O[C@H]2c2ccccc2Cl)cc1 (racemic) [epoxiconazole, (2RS, 3SR)-1-[3-(2-chlorophenyl)-2,3-epoxy-2-(4-fluorophenyl)propyl]-1H-1,2,4-triazole]
pest or weed control at 4 ppm (Alternaria solani; [1]): 56%

COCC(=O)N(c1c(C)cccc1C)C(C)C(=O)OC (racemic) [metalaxyl, methyl N-(methoxyacetyl)-N-(2,6-xylyl)-DL-alaninate]
pest or weed control at 4 ppm (Alternaria solani; [1]): 0%

Cc1ccccc1-c1c(Cl)nc2ncnn2c1N1CCC(C)CC1 [Compound A-31, 5-chloro-6-(2-methylphenyl)-7-(4-methylpiperidin-1-yl)-1,2,4-triazolo[1,5a]pyrimidine]
Efficacy in % of the untreated control (Alternaria solani; 63 ppm in the spray liquor): 78% | Efficacy in % of the untreated control (Puccinia recondita; 16 ppm in the spray liquor): 22% | Efficacy in % of the untreated control (Pyrenophora teres; 16 ppm in the spray liquor): 33% | Efficacy in % of the untreated control (Pyrenophora teres; 63 ppm in the spray liquor): 67%

O=C(Nc1ccccc1-c1ccc(Cl)cc1)c1cccnc1Cl [boscalid, 2-chloro-N-(4′-chlorobiphenyl-2-yl)nicotinamide]
pest or weed control at 16 ppm (Alternaria solani; [2]): 22%

N#Cc1c(Cl)c(Cl)c(Cl)c(C#N)c1Cl [chlorothalonil, 2,4,5,6-tetrachloroisophthalonitrile]
pest or weed control at 63 ppm (Alternaria solani; [3]): 0% | Efficacy in % of the untreated control (Puccinia recondita; 16 ppm in the spray liquor): 17%

Cc1ccc(-c2c(Cl)nc(C#N)n2S(=O)(=O)N(C)C)cc1 [cyazofamid, 4-chloro-2-cyano-N,N-dimethyl-5-p-tolylimidazole-1-sulfonamide]
pest or weed control at 16 ppm (Alternaria solani; [2]): 0% | pest or weed control at 63 ppm (Alternaria solani; [3]): 0% | pest or weed control at 250 ppm (Alternaria solani; Alternaria solani, 120 h, 250 ppm in the spray liquor, read-out: Efficacy in % of the untreated control): 0%

COc1ccc(C(=CC(=O)N2CCOCC2)c2ccc(Cl)cc2)cc1OC [dimethomorph, 3-(4-chlorophenyl)-3-(3,4-dimethoxyphenyl)-1-morpholin-4-ylpropenone]
Efficacy in % of the untreated control (Puccinia recondita; 16 ppm in the spray liquor): 0% | Efficacy in % of the untreated control (Puccinia recondita; 63 ppm in the spray liquor): 0%

N#Cc1sc2c(=O)c3ccccc3c(=O)c=2sc1C#N [dithianon, 5,10-dioxo-5,10-dihydronaphtho[2,3-b][1,4]dithiine-2,3-dicarbonitrile]
Efficacy in % of the untreated control (Pyrenophora teres; 16 ppm in the spray liquor): 0%

CC(Cc1ccc(C(C)(C)C)cc1)CN1CC(C)OC(C)C1 (centres unmarked) [fenpropimorph, 4-[3-(4-tert-butylphenyl)-2-methylpropyl]-2,6-dimethylmorpholine]
Efficacy in % of the untreated control (Puccinia recondita; 16 ppm in the spray liquor): 0% | Efficacy in % of the untreated control (Puccinia recondita; 63 ppm in the spray liquor): 0%

O=C1c2ccccc2C(=O)N1SC(Cl)(Cl)Cl [folpet, 2-trichloromethylsulfanylisoindole-1,3-dione]
pest or weed control at 63 ppm (Alternaria solani; [3]): 0%

CO/N=C(/C(=O)OC)c1ccccc1COc1ccccc1C [kresoxim-methyl, methyl (E)-methoxyimino[α-(otolyloxy)-otolyl]acetate]
Efficacy in % of the untreated control (Puccinia recondita; 1 ppm in the spray liquor): 0% | Efficacy in % of the untreated control (Puccinia recondita; 4 ppm in the spray liquor): 0%

CCCN(CCOc1c(Cl)cc(Cl)cc1Cl)C(=O)n1ccnc1 [prochloraz, N-propyl-N-[2-(2,4,6-trichlorophenoxy)ethyl]imidazole-1-carboxamide]
Efficacy in % of the untreated control (Puccinia recondita; 4 ppm in the spray liquor): 0% | Efficacy in % of the untreated control (Puccinia recondita; 16 ppm in the spray liquor): 0%

OC(Cc1ccccc1Cl)(Cn1nc[nH]c1=S)C1(Cl)CC1 (centres unmarked) [prothioconazole, 2-[2-(1-chlorocyclopropyl)-3-(2-chlorophenyl)-2-hydroxypropyl]-2,4-dihydro-[1,2,4]triazole-3-thione]
pest or weed control at 4 ppm (Alternaria solani; [1]): 22%

Cc1cc(C)nc(Nc2ccccc2)n1 [pyrimethanil, 4,6-dimethylpyrimidin-2-ylphenylamine]
Efficacy in % of the untreated control (Puccinia recondita; 16 ppm in the spray liquor): 0%

CC1(C)CCC(=Cc2ccc(Cl)cc2)C1(O)Cn1cncn1 (centres unmarked) [triticonazole, 5-(4-chlorobenzylidene)-2,2-dimethyl-1-[1,2,4]triazol-1-ylmethylcyclo-pentanol]
pest or weed control at 4 ppm (Alternaria solani; [1]): 0%

manganese ethylenebis(dithiocarbamate) zinc complex [mancozeb]
Efficacy in % of the untreated control (Alternaria solani; 16 ppm in the spray liquor): 0% | Efficacy in % of the untreated control (Alternaria solani; 63 ppm in the spray liquor): 0% | Efficacy in % of the untreated control (Puccinia recondita; 16 ppm in the spray liquor): 0% | Efficacy in % of the untreated control (Puccinia recondita; 63 ppm in the spray liquor): 0%
